Source: patent US20240174696A1, “2,8-DIAZASPIRO[4.5]DECANE COMPOUNDS” (Genentech, Inc., priority 2021, published 2024)
pEC50, pKi: −log10 of the molar value.

Columns and labels:
[1] = system: TAZ nuclear translocation in SW1990 cells; assay: TAZ Nuclear Translocation Assay; type: cell-based; conditions: Homo sapiens, 4 hours
In short: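 SW1990 cells in RPMI1640/10% FBS treated with compounds for 4 h at 37 °C, then fixed and immunostained for TAZ with Hoechst nuclear counterstain and imaged by high-content imaging. Read-out is the nuclear/cytoplasmic-ring fluorescence ratio, normalized to DMSO (0%) and an inhibitor control (100%); EC50 from four-parameter fit.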

[2] = system: pYAP(Ser127) in SW1990 cells; assay: pYAP(Ser127) HTRF Cellular Assay; type: cell-based; conditions: Homo sapiens, 4 hours
Protocol: The SW1990 cells were seeded at 8000 cells/well by adding 30 μL/well of cells in RPMI1640, 10% FBS, 2 mM glutamine culture media to a 384-well plate (Corning 3570). The cells were incubated overnight at 37° C. Next day, compounds were directly added to the cells using the Echo Liquid Handler (Labcyte), incubate at 37° C. for 4 hours.
The HTRF assay was performed using the Cisbio phospho-YAP Ser127 HTRF kit (64YAPPEG). The media was aspirated from the cells. 20 μL of 1X lysis/blocking buffer was added to the cells, gently shake for 30 minutes at room temperature. 1 μL of the premixed antibody solution (1:40 dilution of each phospho-YAP Eu Cryptate antibody and phospho-YAP d2 antibody) was added to the cells. The plate was sealed and incubated overnight at room temperature. The HTRF (665 nm/620 nm) signal was read on the PHERAstar reader (BMG Labtech). The EC50 values were calculated by fitting the % inhibition with a nonlinear four-parameter logistical equation.

[3] = target: T1, Human LATS2 catalytic domain (Homo sapiens (Human), UniProt Q9NRM7); assay: LATS2 High ATP HTRF Assay; type: biochemical; conditions: no asterisk: LATS2 High ATP HTRF Assay, 5000 μM ATP, 0.05 nM LATS2
In short: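 LATS2 catalytic domain (G553-V1088) co-purified with Mob1b, 0.05 nM, pre-incubated 10 min with compound, then 5000 μM ATP and 0.5 μM STK S1 peptide in HEPES pH7.2 for 2 h at room temperature. HTRF 665/620 nm read; IC50 by four-parameter fit, Ki via Cheng-Prusoff with ATP Km 105 μM.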

[4] = target: Human LATS1 catalytic domain (Homo sapiens (Human), UniProt O95835); assay: LATS1 High ATP HTRF Assay; type: biochemical; conditions: 5000 μM ATP, 0.025 nM LATS1; Cheng-Prusoff
Protocol: Human LATS1 catalytic domain which contains the amino acids E590-V1130 (accession NP_004681) was purified in-house. The LATS1 catalytic domain was co-purified with Mob1b (accession NP_775739). The LATS1 biochemical assay was performed using the HTRF KinEASE-STK S1 Kit (Cisbio, Cat #62ST1PEC), following the protocol from the manufacturer. Compounds were dispensed by the Echo Liquid Handler (Labcyte) into a white 384-well plate (PerkinElmer, Cat #6008289). 3 μL of 2×LATS1 enzyme solution was added to the compounds, followed by a 10 minute incubation at room temperature. Then, 3 μL of 2×ATP and STK S1 peptide solution was added to initiate the enzyme reaction for one hour at room temperature. The final condition of the reaction was 0.025 nM LATS1, 5000 μM ATP, 0.5 μM STK S1 peptide in 50 mM HEPES pH 7.2, 10 mM MgCl2, 0.1% BGG, 0.005% Brij-35, 1 mM DTT. The reaction was quenched and the HTRF signal was read.

[5] = target: T1, Human LATS2 catalytic domain; assay: Standard LATS2 HTRF Assay; type: biochemical; conditions: asterisk: Standard LATS2 HTRF Assay, 50 μM ATP, 0.2 nM LATS2
Protocol: Human LATS2 catalytic domain which contains the amino acids G553-V1088 (accession NP_055387) was purified in-house. The LATS2 catalytic domain was co-purified with Mob1b (accession NP_775739). The LATS2 biochemical HTRF assay was performed using the HTRF KinEASE-STK S1 Kit (Cisbio, Cat #62ST1PEC), following the protocol from the manufacturer. Compounds were dispensed by the Echo Liquid Handler (Labcyte) into a white 384-well plate (PerkinElmer, Cat #6008289). 3 uL of 2×LATS2 enzyme solution was added to the compounds, following by a 10 minute incubation at room temperature. Then, 2×ATP and STK S1 peptide solution was added to initiate the one hour enzyme reaction at room temperature. The final condition of the reaction was 0.2 nM LATS2, 50 μM ATP, 0.5 μM STK S1 peptide in 50 mM HEPES pH7.2, 10 mM MgCl2, 0.1% BGG, 0.005% Brij-35, 1 mM DTT. The reaction was quenched by adding 6 uL of the detection mixture which contained Streptavidin XL665 and STK Antibody-Cryptate (Cisbio), incubate for 1 hour at room temperature. The HTRF (665 nm/620 nm) signal was read on the Envision plater reader (PerkinElmer). The IC50 values were determined by fitting the % inhibition with a nonlinear four-parameter logistical equation. The Ki values were calculated using the Cheng-Prusoff equation for a competitive inhibitor, IC50═Ki (1+S/Km)+M [E] with ATP Km for LATS2=105 μM.

Sequence of Human LATS1 catalytic domain (O95835 590-1130): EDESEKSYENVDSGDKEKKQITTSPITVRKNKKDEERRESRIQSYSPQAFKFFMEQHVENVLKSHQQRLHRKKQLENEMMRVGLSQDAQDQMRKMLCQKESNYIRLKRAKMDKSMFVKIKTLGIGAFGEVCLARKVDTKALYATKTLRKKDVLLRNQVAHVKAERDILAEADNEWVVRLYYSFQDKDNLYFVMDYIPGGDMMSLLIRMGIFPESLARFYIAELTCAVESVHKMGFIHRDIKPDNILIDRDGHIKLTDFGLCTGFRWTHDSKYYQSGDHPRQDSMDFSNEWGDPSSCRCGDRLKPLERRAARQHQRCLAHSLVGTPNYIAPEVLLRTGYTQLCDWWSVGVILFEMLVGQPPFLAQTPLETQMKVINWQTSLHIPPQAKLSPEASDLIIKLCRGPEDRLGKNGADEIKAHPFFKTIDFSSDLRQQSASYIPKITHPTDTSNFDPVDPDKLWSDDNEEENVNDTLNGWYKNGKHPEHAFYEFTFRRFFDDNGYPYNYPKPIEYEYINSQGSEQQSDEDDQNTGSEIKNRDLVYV
Sequence of Human LATS1 catalytic domain (Q7L9L4 whole entry partner, the tested form may be a part): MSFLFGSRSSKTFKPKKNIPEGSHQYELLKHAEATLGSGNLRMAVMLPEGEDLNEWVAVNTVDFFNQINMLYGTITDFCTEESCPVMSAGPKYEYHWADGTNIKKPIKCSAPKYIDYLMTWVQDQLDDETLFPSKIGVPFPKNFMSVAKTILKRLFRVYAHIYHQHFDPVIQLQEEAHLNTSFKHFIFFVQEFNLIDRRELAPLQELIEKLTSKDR
T1 sequence (Q9NRM7 553-1088): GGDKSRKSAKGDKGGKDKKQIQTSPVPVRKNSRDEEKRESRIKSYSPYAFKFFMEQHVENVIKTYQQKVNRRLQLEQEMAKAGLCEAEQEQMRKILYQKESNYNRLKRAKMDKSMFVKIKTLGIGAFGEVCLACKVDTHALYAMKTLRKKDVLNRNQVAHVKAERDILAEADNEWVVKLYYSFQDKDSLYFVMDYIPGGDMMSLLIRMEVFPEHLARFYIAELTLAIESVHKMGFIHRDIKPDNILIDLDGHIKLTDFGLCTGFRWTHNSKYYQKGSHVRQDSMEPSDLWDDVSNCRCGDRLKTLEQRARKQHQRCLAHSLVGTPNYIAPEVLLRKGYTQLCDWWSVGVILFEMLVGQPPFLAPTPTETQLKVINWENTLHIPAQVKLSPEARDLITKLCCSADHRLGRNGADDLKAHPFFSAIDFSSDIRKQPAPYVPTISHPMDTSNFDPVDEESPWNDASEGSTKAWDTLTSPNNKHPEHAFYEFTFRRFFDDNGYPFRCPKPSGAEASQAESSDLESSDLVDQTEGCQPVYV
T1 sequence (Q7L9L4 whole entry partner, the tested form may be a part): as the sequence (Q7L9L4 whole entry partner, the tested form may be a part) above

pEC50 [1] | pEC50 [2] | pKi [3] | pKi [4] | pKi [5] | Compound
6.52 | 6.51 | 9.89 | 11.20 | – | C[C@H](O)CN1CCC2(CCN(c3nc(-c4ccncc4)nc4cnccc34)CC2)C1 (single isomer, unassigned) [Compound 115]
6.51 | 6.49 | 9.89 | 11.10 | – | C[C@@H](O)CN1CCC2(CCN(c3nc(-c4ccncc4)nc4cnccc34)CC2)C1 (single isomer, unassigned) [Compound 116]
6.52 | 6.44 | 10.14 | 11.24 | – | O[C@@H]1CCC[C@H]1N1CCC2(CCN(c3nc(-c4ccncc4)nc4cnccc34)CC2)C1 (single isomer, unassigned) [Compound 128]
6.85 | 6.54 | 10.12 | 11.13 | – | O[C@H]1CCC[C@@H]1N1CCC2(CCN(c3nc(-c4ccncc4)nc4cnccc34)CC2)C1 (single isomer, unassigned) [Compound 129]
6.46 | 6.37 | 9.01 | 10.96 | – | CN1CCC2(CCN(c3nc(-c4ccncc4)nc4cnccc34)CC2)C1 [Compound 102, 4-(2-methyl-2,8-diazaspiro[4.5]decan-8-yl)-2-(pyridin-4-yl)pyrido[3,4-d]pyrimidine]
6.66 | 6.48 | 10.12 | 11.10 | – | CC(C)(O)CN1CCC2(CCN(c3nc(-c4ccncc4)nc4cnccc34)CC2)C1 [Compound 110, 2-methyl-1-(8-(2-(pyridin-4-yl)pyrido[3,4-d]pyrimidin-4-yl)-2,8-diazaspiro[4.5]decan-2-yl)propan-2-ol]
< 5.00 | – | – | – | 8.99 | N#CC1CC(N2CCC3(CCN(c4nc(-c5ccncc5)nc5cnccc45)CC3)C2)C1 (centres unmarked) [Compound 118, 3-(8-(2-(pyridin-4-yl)pyrido[3,4-d]pyrimidin-4-yl)-2,8-diazaspiro[4.5]decan-2-yl)cyclobutanecarbonitrile]
6.00 | – | – | – | 8.99 | c1cc(-c2nc(N3CCC4(CC3)CCN(C3CCOCC3)C4)c3ccncc3n2)ccn1 [Compound 122, 2-(pyridin-4-yl)-4-(2-(tetrahydro-2H-pyran-4-yl)-2,8-diazaspiro[4.5]decan-8-yl)pyrido[3,4-d]pyrimidine]
6.62 | 6.59 | 10.08 | 11.17 | – | c1cc(-c2nc(N3CCC4(CCN(CC5COC5)C4)CC3)c3ccncc3n2)ccn1 [Compound 124, 4-(2-(oxetan-3-ylmethyl)-2,8-diazaspiro[4.5]decan-8-yl)-2-(pyridin-4-yl)pyrido[3,4-d]pyrimidine]
5.77 | – | – | – | 8.66 | c1cc(-c2nc(N3CCC4(CC3)CCN(C3COC3)C4)c3ccncc3n2)ccn1 [Compound 137, 4-(2-(oxetan-3-yl)-2,8-diazaspiro[4.5]decan-8-yl)-2-(pyridin-4-yl)pyrido[3,4-d]pyrimidine]
6.74 | 6.68 | 10.25 | 10.89 | – | Cc1n[nH]cc1-c1nc(N2CCC3(CC2)CCN(C2CCCC2)C3)c2ccncc2n1 [Compound 147, 4-(2-cyclopentyl-2,8-diazaspiro[4.5]decan-8-yl)-2-(3-methyl-1H-pyrazol-4-yl)pyrido[3,4-d]pyrimidine]
5.14 | – | – | – | 9.80 | FC(F)(F)c1[nH]ncc1-c1nc(N2CCC3(CCNC3)CC2)c2ccncc2n1 [Compound 154, 4-(2,8-diazaspiro[4.5]decan-8-yl)-2-(5-(trifluoromethyl)-1H-pyrazol-4-yl)pyrido[3,4-d]pyrimidine]
6.62 | 6.29 | 10.17 | 10.31 | – | c1ccc(Cc2cc3c(N4CCC5(CCNC5)CC4)nc(-c4ccncc4)nc3cn2)cc1 [Compound 157, 6-benzyl-2-(pyridin-4-yl)-4-(2,8-diazaspiro[4.5]decan-8-yl)pyrido[3,4-d]pyrimidine]
5.51 | – | – | – | 8.89 | Cc1cc2c(N3CCC4(CCNC4)CC3)nc(-c3ccncc3)nc2cn1 [Compound 158, 6-methyl-2-(pyridin-4-yl)-4-(2,8-diazaspiro[4.5]decan-8-yl)pyrido[3,4-d]pyrimidine]
< 5.00 | – | 7.27 | – | 8.03 | O=C1CC2(CCN(c3nc(-c4ccncc4)nc4cnccc34)CC2)CN1 [Compound 164, 8-(2-(pyridin-4-yl)pyrido[3,4-d]pyrimidin-4-yl)-2,8-diazaspiro[4.5]decan-3-one]
5.19 | – | 8.27 | – | 8.41 | O=C1NCCC12CCN(c1nc(-c3ccncc3)nc3cnccc13)CC2 [Compound 165, 8-(2-(pyridin-4-yl)pyrido[3,4-d]pyrimidin-4-yl)-2,8-diazaspiro[4.5]decan-1-one]

Compound | pEC50 [1] | pEC50 [2] | pKi [3] | pKi [4] | pKi [5]
c1cc(-c2nc(N3CCC4(CCNC4)CC3)c3ccncc3n2)ccn1 [Compound 101, 2-(pyridin-4-yl)-4-(2,8-diazaspiro[4.5]decan-8-yl)pyrido[3,4-d]pyrimidine] | 6.00 | 5.96 | 9.42 | 10.29 | –
